pIC50: −log10 of the molar value.
Tests used:
Assay type in all cases: biochemical
FXa = FXa (Homo sapiens, UniProt P00742); test: Related protease inhibition: FXa, fluorogenic substrate; conditions: fluorogenic substrate at Km, 25° C., H1-H3 = % activity at 40 μM; for activity at 40 µM: read-out: IC50 (human FXa) nM
Protocol: (§1) Human serine protease enzyme Plasma Kallikrein, KLK1, FXa, Plasmin, Thrombin and Trypsin were assayed for enzymatic activity using an appropriate fluorogenic substrate at Km concentration, FXIa at fixed substrate concentration of 100 μM and various concentrations of the test compound.

Thrombin = Thrombin (Homo sapiens, UniProt P00734); test: Related protease inhibition: Thrombin, fluorogenic substrate; conditions: fluorogenic substrate at Km, 25° C., H1-H3 = % activity at 40 μM; for activity at 40 µM: read-out: IC50 (human thrombin) nM
Protocol: as §1

[1] = target: T1, Human Factor XIIa (hFXIIa) (Homo sapiens, UniProt P00748); test: Determination of Human Factor XIIa (hFXIIa) inhibition, fluorogenic substrate IC50 assay; conditions: fluorogenic substrate H-DPro-Phe-Arg-AFC at Km, 25° C., read-out: Human FXIIa IC50
T1 construct: purchased Enzyme Research Laboratories
T1 sequence (P00748 373-615 limits assumed): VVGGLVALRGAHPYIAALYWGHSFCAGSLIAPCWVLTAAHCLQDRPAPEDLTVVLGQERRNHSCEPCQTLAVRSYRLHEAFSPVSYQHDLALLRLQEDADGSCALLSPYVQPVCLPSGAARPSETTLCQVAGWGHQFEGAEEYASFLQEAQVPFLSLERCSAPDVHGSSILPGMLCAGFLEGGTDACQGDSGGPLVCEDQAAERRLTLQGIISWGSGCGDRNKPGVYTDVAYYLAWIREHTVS
T1 sequence (P00748 20-372 partner limits assumed): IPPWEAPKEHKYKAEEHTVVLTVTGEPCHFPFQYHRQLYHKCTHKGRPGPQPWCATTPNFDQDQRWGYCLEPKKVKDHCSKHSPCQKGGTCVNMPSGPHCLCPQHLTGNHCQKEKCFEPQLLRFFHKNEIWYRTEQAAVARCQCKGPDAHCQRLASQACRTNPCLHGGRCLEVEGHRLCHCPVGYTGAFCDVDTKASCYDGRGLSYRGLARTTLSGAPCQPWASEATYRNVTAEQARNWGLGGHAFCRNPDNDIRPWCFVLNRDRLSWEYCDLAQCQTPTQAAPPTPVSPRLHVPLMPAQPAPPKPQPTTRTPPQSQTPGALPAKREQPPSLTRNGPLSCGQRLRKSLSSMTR
Protocol: Determination of Human Factor XIIa (hFXIIa) inhibition
The Km for the cleavage of the substrate by hFXIIa was determined by standard transformation of the Michaelis-Menten equation, with subsequent inhibition assays performed at substrate Km concentration.

Sequence of FXa (P00742 235-488 limits assumed): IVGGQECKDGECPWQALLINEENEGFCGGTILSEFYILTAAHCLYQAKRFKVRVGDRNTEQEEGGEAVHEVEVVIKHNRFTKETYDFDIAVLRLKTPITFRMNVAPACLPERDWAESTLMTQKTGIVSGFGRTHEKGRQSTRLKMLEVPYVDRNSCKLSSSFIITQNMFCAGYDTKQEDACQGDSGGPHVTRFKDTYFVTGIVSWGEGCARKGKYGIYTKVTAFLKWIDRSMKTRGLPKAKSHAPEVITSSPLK
Sequence of FXa (P00742 41-179 partner limits assumed): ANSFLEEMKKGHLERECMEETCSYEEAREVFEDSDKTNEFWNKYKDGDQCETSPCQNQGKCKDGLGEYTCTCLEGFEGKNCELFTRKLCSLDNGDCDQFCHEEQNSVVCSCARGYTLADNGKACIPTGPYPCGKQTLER

pIC50 (FXa) | pIC50 (Thrombin) | pIC50 [1] | activity at 40 µM (FXa) | activity at 40 µM (Thrombin) | SMILES
4.40 to 5.00 | 4.40 to 5.00 | 7.00 to 8.00 | – | – | Cc1cc(CNC(=O)c2nn(-c3cccc(Cl)c3)c3c2CCN(c2ccc4c(c2)C(=O)N(CC(F)(F)F)CCO4)C3=O)n[nH]1 [Example 1378, 1-(3-chlorophenyl)-N-((5-methyl-1H-pyrazol-3-yl)methyl)-7-oxo-6-(5-oxo-4-(2,2,2-trifluoroethyl)-2,3,4,5-tetrahydrobenzo[f][1,4]oxazepin-7-yl)-4,5,6,7-tetrahydro-1H-pyrazolo[3,4-c]pyridine-3-carboxamide]
– | – | 6.52 to 7.00 | > 80% | 20 to 80% | CN1CCc2ccc(N3CCc4c(C(=O)N[C@H](CO)C5CC5)nn(-c5cccc(Cl)c5)c4C3=O)cc2C1=O [Example 1406, (S)-1-(3-chlorophenyl)-N-(1-cyclopropyl-2-hydroxyethyl)-6-(2-methyl-1-oxo-1,2,3,4-tetrahydroisoquinolin-7-yl)-7-oxo-4,5,6,7-tetrahydro-1H-pyrazolo[3,4-c]pyridine-3-carboxamide]
– | – | 5.00 to 5.52 | > 80% | > 80% | CCNC(=O)c1nn(-c2cccc(Cl)c2)c2c1CCN(c1cccc(N3CCN(C(C)C)C3=O)c1)C2=O [Example 1409, 1-(3-chlorophenyl)-N-ethyl-6-(3-(3-isopropyl-2-oxoimidazolidin-1-yl)phenyl)-7-oxo-4,5,6,7-tetrahydro-1H-pyrazolo[3,4-c]pyridine-3-carboxamide]
– | – | 6.00 to 6.52 | 20 to 80% | < 20% | COCCNC(=O)c1nn(-c2cccc(Cl)c2)c2c1CCN(c1ccc3c(c1)C(=O)N(C)CC3)C2=O [Example 1410, 1-(3-chlorophenyl)-N-(2-methoxyethyl)-6-(2-methyl-1-oxo-1,2,3,4-tetrahydroisoquinolin-7-yl)-7-oxo-4,5,6,7-tetrahydro-1H-pyrazolo[3,4-c]pyridine-3-carboxamide]
– | – | 6.00 to 6.52 | > 80% | > 80% | CN1CCc2ccc(N3CCc4c(C(=O)N[C@@H]5COC[C@H]5O)nn(-c5cccc(Cl)c5)c4C3=O)cc2C1=O [Example 1411, 1-(3-chlorophenyl)-N-((3R,4S)-4-hydroxytetrahydrofuran-3-yl)-6-(2-methyl-1-oxo-1,2,3,4-tetrahydroisoquinolin-7-yl)-7-oxo-4,5,6,7-tetrahydro-1H-pyrazolo[3,4-c]pyridine-3-carboxamide]
– | – | 6.00 to 6.52 | 20 to 80% | 20 to 80% | CN1CCc2ccc(N3CCc4c(C(=O)N[C@@H]5COC[C@@H]5O)nn(-c5cccc(Cl)c5)c4C3=O)cc2C1=O [Example 1412, 1-(3-chlorophenyl)-N-((3R,4R)-4-hydroxytetrahydrofuran-3-yl)-6-(2-methyl-1-oxo-1,2,3,4-tetrahydroisoquinolin-7-yl)-7-oxo-4,5,6,7-tetrahydro-1H-pyrazolo[3,4-c]pyridine-3-carboxamide]
– | – | 4.40 to 5.00 | > 80% | 20 to 80% | CCNC(=O)c1nn(-c2cccc(Cl)c2)c2c1CCN(c1cccc(N3C(=O)C[C@H]4CCC[C@H]43)c1)C2=O [Example 1413, 1-(3-chlorophenyl)-N-ethyl-7-oxo-6-(3-((3aR,6aR)-2-oxohexahydrocyclopenta[b]pyrrol-1(2H)-yl)phenyl)-4,5,6,7-tetrahydro-1H-pyrazolo[3,4-c]pyridine-3-carboxamide]
– | – | 6.52 to 7.00 | 20 to 80% | 20 to 80% | Cc1ccc(CNC(=O)c2nn(-c3cccc(Cl)c3)c3c2CCN(c2ccc4c(c2)C(=O)N(CCO)CC4)C3=O)cn1 [Example 1414, 1-(3-chlorophenyl)-6-(2-(2-hydroxyethyl)-1-oxo-1,2,3,4-tetrahydroisoquinolin-7-yl)-N-((6-methylpyridin-3-yl)methyl)-7-oxo-4,5,6,7-tetrahydro-1H-pyrazolo[3,4-c]pyridine-3-carboxamide]
– | – | 6.52 to 7.00 | > 80% | > 80% | CN1CCc2ccc(N3CCc4c(C(=O)N[C@H]5COC[C@@H]5O)nn(-c5cccc(Cl)c5)c4C3=O)cc2C1=O [Example 1415, 1-(3-chlorophenyl)-N-((3S,4R)-4-hydroxytetrahydrofuran-3-yl)-6-(2-methyl-1-oxo-1,2,3,4-tetrahydroisoquinolin-7-yl)-7-oxo-4,5,6,7-tetrahydro-1H-pyrazolo[3,4-c]pyridine-3-carboxamide]
– | – | 6.52 to 7.00 | 20 to 80% | 20 to 80% | CN1CCc2ccc(N3CCc4c(C(=O)N[C@H]5COC[C@H]5O)nn(-c5cccc(Cl)c5)c4C3=O)cc2C1=O [Example 1416, 1-(3-chlorophenyl)-N-((3S,4S)-4-hydroxytetrahydrofuran-3-yl)-6-(2-methyl-1-oxo-1,2,3,4-tetrahydroisoquinolin-7-yl)-7-oxo-4,5,6,7-tetrahydro-1H-pyrazolo[3,4-c]pyridine-3-carboxamide]
– | – | 6.00 to 6.52 | 20 to 80% | 20 to 80% | CN1CCc2ccc(N3CCc4c(C(=O)NCCCO)nn(-c5cccc(Cl)c5)c4C3=O)cc2C1=O [Example 1417, 1-(3-chlorophenyl)-N-(3-hydroxypropyl)-6-(2-methyl-1-oxo-1,2,3,4-tetrahydroisoquinolin-7-yl)-7-oxo-4,5,6,7-tetrahydro-1H-pyrazolo[3,4-c]pyridine-3-carboxamide]
– | – | 6.00 to 6.52 | 20 to 80% | > 80% | CCNC(=O)c1nn(-c2cccc(Cl)c2)c2c1CCN(c1cc3c(cn1)OCCN(C)C3=O)C2=O [Example 1418, 1-(3-chlorophenyl)-N-ethyl-6-(4-methyl-5-oxo-2,3,4,5-tetrahydropyrido[4,3-f][1,4]oxazepin-7-yl)-7-oxo-4,5,6,7-tetrahydro-1H-pyrazolo[3,4-c]pyridine-3-carboxamide]
– | – | 5.52 to 6.00 | 20 to 80% | 20 to 80% | CCNC(=O)c1nn(-c2cccc(Cl)c2)c2c1CCN(c1ccc(OC)c(CN3CCCCC3)c1)C2=O [Example 1419, 1-(3-chlorophenyl)-N-ethyl-6-(4-methoxy-3-(piperidin-1-ylmethyl)phenyl)-7-oxo-4,5,6,7-tetrahydro-1H-pyrazolo[3,4-c]pyridine-3-carboxamide]
– | – | 5.00 to 5.52 | > 80% | > 80% | CCNC(=O)c1nn(-c2cccc(Cl)c2)c2c1CCN(c1cccc(N3CCN(C)CC3=O)c1)C2=O [Example 1420, 1-(3-chlorophenyl)-N-ethyl-6-(3-(4-methyl-2-oxopiperazin-1-yl)phenyl)-7-oxo-4,5,6,7-tetrahydro-1H-pyrazolo[3,4-c]pyridine-3-carboxamide]
– | – | 6.00 to 6.52 | > 80% | > 80% | CN1CCc2ccc(N3CCc4c(C(=O)NCC5(O)CC5)nn(-c5cccc(Cl)c5)c4C3=O)cc2C1=O [Example 1421, 1-(3-chlorophenyl)-N-((1-hydroxycyclopropyl)methyl)-6-(2-methyl-1-oxo-1,2,3,4-tetrahydroisoquinolin-7-yl)-7-oxo-4,5,6,7-tetrahydro-1H-pyrazolo[3,4-c]pyridine-3-carboxamide]
– | – | 4.40 to 5.00 | 20 to 80% | 20 to 80% | CCNC(=O)c1nn(-c2cccc(Cl)c2)c2c1CCN(c1ccc3c(c1)NCCO3)C2=O [Example 1422, 1-(3-chlorophenyl)-6-(3,4-dihydro-2H-benzo[b][1,4]oxazin-6-yl)-N-ethyl-7-oxo-4,5,6,7-tetrahydro-1H-pyrazolo[3,4-c]pyridine-3-carboxamide]
– | – | 5.52 to 6.00 | 20 to 80% | 20 to 80% | CCNC(=O)c1nn(-c2cccc(Cl)c2)c2c1CCN(c1cccc(N3CCN(C)CC3)c1)C2=O [Example 1423, 1-(3-Chlorophenyl)-N-ethyl-6-(3-(4-methylpiperazin-1-yl)phenyl)-7-oxo-4,5,6,7-tetrahydro-1H-pyrazolo[3,4-c]pyridine-3-carboxamide]
– | – | 6.52 to 7.00 | 20 to 80% | > 80% | CN1CCc2ccc(N3CCc4c(C(=O)NC5CCNCC5(F)F)nn(-c5cccc(Cl)c5)c4C3=O)cc2C1=O (stereo not drawn) [Example 1424, 1-(3-chlorophenyl)-N-(3,3-difluoropiperidin-4-yl)-6-(2-methyl-1-oxo-1,2,3,4-tetrahydroisoquinolin-7-yl)-7-oxo-4,5,6,7-tetrahydro-1H-pyrazolo[3,4-c]pyridine-3-carboxamide]

— patent US20260132132A1, “3A,4,5,6-TETRAHYDRO-1 H-PYRAZOLO[3,4-C]PYRIDIN-7(7AH)-ONE DERIVATIVES AS FACTOR XIIA INHIBITORS” (KALVISTA PHARMACEUTICALS LIMITED, priority 2022, published 2026)
